Converted amounts (≈) assume the structure as drawn.
Legend:
Assay type in all cases: functional
[1] = tested on: MCF7; assay: Cytotoxicity against human MCF7 cells after 6 days by MTT assay; details: MCF7, 144 h, read-out: ED50 (the source's name)
[2] = tested on: HepG2; assay: Cytotoxicity against human HepG2 cells after 6 days by MTT assay in presence of DMEM12; details: HepG2, 144 h, read-out: ED50 (the source's name)
[3] = tested on: MDA-MB-231; assay: Cytotoxicity against human MDA-MB-231 cells after 6 days by MTT assay; details: MDA-MB-231, 144 h, read-out: ED50 (the source's name)

In the case of `C=C1C[C@@]2(O)O[C@H]([C@@H]3[C@@H](C(C)C)CC[C@@](C)(OC(=O)CCC)[C@@H]32)[C@](C)(O)CC[C@@H]1OC(C)=O` [AUSTARLIN B], the EC50 [1] is reported as 8.6 µg/mL (≈ 18.4 µM), the EC50 [2] is reported as 2.4 µg/mL and the EC50 [3] is reported as 6.4 µg/mL (≈ 13.7 µM).

For `C=C1CC[C@H]([C@@H](C)CO)[C@@H]2[C@H]1C(=O)C[C@@](C)(O)[C@H]1CC[C@@](C)(OC(=O)CCC)[C@@H]2O1` [AUSTARLIN D], the EC50 [3] was 24.4 µg/mL (≈ 57.7 µM).
